{"source": "paper PMC11873939", "about": "“Target Identification with Live-Cell Photoaffinity Labeling and Mechanism of Action Elucidation of ARN23765, a Highly Potent CFTR Corrector” (Journal of Medicinal Chemistry, 2025)", "format_in_all_cases": "cell-based", "key": {"F508del-CFTR": {"molecular_target": "T1, F508del-CFTR (Homo sapiens, UniProt P13569, DEL508-508)", "T1 construct": "expressed in transfected cells", "T1 sequence (P13569 with tags, fused parts or gaps DEL508-508)": "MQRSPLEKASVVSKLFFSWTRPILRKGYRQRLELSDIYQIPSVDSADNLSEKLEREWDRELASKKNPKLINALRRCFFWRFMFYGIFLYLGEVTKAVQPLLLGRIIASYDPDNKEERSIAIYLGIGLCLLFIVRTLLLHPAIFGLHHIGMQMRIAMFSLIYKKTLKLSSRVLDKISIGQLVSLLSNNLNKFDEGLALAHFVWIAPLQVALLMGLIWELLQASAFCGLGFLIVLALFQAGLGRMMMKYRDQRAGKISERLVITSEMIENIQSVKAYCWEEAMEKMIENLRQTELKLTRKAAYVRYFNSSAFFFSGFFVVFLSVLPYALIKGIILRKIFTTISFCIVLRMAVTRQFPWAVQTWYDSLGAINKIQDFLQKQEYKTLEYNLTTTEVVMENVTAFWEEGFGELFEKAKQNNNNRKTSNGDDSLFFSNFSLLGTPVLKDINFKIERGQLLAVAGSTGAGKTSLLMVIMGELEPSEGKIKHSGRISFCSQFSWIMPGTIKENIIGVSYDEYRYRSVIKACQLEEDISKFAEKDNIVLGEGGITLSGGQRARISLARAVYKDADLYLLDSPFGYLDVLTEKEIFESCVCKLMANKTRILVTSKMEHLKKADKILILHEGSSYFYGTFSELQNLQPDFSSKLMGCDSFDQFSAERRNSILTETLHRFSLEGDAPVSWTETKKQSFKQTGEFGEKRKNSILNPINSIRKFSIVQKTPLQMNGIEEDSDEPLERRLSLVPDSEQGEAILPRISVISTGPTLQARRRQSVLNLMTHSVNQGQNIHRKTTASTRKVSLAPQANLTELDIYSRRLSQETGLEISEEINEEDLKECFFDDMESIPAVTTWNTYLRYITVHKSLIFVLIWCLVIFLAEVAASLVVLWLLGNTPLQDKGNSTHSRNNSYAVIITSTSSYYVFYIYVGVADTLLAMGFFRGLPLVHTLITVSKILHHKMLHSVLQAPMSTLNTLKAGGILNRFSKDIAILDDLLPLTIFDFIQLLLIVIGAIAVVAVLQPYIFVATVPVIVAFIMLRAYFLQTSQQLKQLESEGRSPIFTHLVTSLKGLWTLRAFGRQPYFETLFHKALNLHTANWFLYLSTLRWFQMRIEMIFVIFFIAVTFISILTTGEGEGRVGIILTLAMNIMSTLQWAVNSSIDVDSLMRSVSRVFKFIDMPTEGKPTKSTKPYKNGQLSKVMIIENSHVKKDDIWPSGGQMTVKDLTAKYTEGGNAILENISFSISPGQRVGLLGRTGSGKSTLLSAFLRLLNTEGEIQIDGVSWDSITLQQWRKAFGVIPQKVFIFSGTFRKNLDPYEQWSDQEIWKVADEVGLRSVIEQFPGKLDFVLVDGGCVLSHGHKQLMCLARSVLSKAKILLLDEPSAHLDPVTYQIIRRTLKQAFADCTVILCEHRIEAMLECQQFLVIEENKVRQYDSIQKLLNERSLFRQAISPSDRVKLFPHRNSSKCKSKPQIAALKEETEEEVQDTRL", "test": "HS-YFP functional assay in CFBE41o- cells stably overexpressing F508del-CFTR", "conditions": "24 h treatment", "method": "These analogues were tested in the functional assay on the human bronchial epithelia-derived cell line, CFBE41o-, which stably overexpresses F508del-CFTR and the halide-sensitive yellow fluorescent protein (HS-YFP).[31] […]\nHS-YFP-based assay for CFTR activity\nTwenty-four hours after seeding on 96-well plates, CFBE41o- cells stably over-expressing F508del-CFTR and the HS-YFP were treated with test compounds at different concentrations in the 3 nM-10 µM range.1 Cells treated with vehicle alone (DMSO) and with ARN23765, respectively, served as negative and positive controls. The following day, cells were washed with PBS containing (in mM) 137 NaCl, 2.7 KCl, 8.1 Na2HPO4, 1.5 KH2PO4, 1.0 CaCl2, and 0.5 MgCl2. Cells were then incubated for 25 min with […] of PBS plus forskolin (20 µM) and VX-770 (1 µM) to maximally stimulate F508del-CFTR. Cells were then transferred to a microplate reader (FluoStar Galaxy; BMG Labtech, Offenburg, Germany) for CFTR activity determination. The plate reader was equipped with high-quality excitation (HQ500/20X: 500 ± 10 nm) and emission (HQ535/30M: 535 ± 15 nm) filters for YFP (Chroma Technology). Each assay comprised a continuous 14 s fluorescence reading, 2 s before and 12 s after injection of […] of an iodide-containing solution (PBS with Cl- replaced by I-; final I- concentration […]). Data were normalized to the initial background-subtracted fluorescence. To determine I- influx rate, the final 11 s of the data for each well were fitted with an exponential function to extrapolate initial slope (dF/dt). Reproducibility of results was confirmed by performing three independent experiments. […]"}, "[1]": {"molecular_target": "CFTR fragments containing MSD1 (Homo sapiens, UniProt P13569)", "sequence (P13569 1-380 limits assumed)": "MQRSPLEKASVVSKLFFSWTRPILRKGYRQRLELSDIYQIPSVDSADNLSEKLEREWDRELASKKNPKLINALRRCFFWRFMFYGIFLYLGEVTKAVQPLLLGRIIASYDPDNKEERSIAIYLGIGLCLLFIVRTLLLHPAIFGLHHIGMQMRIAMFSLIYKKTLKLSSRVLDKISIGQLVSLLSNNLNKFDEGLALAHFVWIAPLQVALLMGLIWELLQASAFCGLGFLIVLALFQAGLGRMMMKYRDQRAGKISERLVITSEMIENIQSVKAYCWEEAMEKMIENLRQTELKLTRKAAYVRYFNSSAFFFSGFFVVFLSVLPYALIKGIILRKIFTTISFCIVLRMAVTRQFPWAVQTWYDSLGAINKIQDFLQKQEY", "test": "CFTR fragment stability analysis (WB) in transfected HEK293 cells", "conditions": "HEK293, 24 h incubation, 10 nM", "method": "(§1) CFTR correctors are expected to stabilize the expression of the protein domains with which they interact, resulting in an increased amount of protein.[35]−[37] To determinate the portion of CFTR with which ARN23765 interacts, constructs coding for CFTR fragments of different lengths (Figure 3A) were transfected in HEK293 cells, and the effect of 24 h incubation with ARN23765 on the expression of the truncated proteins was analyzed with WB. […] To better study ARN23765’s stabilization of MSD1 vs MSD2, we analyzed their expression in transfected HEK-293 cells over 6 h of cycloheximide treatment.\n(§2) Constructs coding for MSD1 (residues 1–380), A52-tagged MSD2 (residues 837–1196) and MSD2-NBD2 (residues 850–1480) were transfected in HEK293 cells using JetPEI reagent (101000053, Polyplus Technology). After 18 h transfection, cells were treated for 24 h with either 0.2% DMSO, VX-661 (3 μM), ARN23765 (10 nM) or corr-4a (10 μM). Cell lysates were analyzed by WB, as described in the dedicated paragraph."}, "[2]": {"molecular_target": "CFTR fragments containing MSD2 (Homo sapiens, UniProt P13569)", "sequence (P13569 850-1196 limits assumed)": "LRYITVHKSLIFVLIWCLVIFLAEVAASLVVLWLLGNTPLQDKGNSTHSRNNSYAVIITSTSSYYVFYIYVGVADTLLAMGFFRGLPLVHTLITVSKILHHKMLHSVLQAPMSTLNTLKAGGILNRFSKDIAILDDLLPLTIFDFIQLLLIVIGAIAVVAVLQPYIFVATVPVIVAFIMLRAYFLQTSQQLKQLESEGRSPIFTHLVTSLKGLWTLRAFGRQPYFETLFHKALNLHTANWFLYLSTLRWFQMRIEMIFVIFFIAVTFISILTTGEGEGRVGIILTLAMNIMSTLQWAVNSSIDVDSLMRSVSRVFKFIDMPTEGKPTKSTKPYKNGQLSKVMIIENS", "test": "CFTR fragment stability analysis (WB) in transfected HEK293 cells", "conditions": "HEK293, 24 h incubation, 10 nM", "method": "as §1, §2"}, "F508del/R1070W-CFTR": {"molecular_target": "T2, F508del/R1070W-CFTR (Homo sapiens, UniProt P13569, DEL508-508/R1070W)", "T2 construct": "CFTR identification in pull-down studies and analysis of full-length CFTR in protein maturation assays; expressed in transfected cells; host or cells: HEK293 (transient)", "T2 sequence (P13569 with tags, fused parts or gaps DEL508-508/R1070W)": "as the sequence (P13569 with tags, fused parts or gaps DEL508-508) above, with R1069W counted along it", "test": "Protein maturation assay (WB, band C/(C+B)) in transfected HEK293 cells", "conditions": "HEK293, 24 h; ARN23765 10 nM, VX-661 3 μM", "method": "HEK293 cells were plated in 24-wells at around 80% of confluence and transfected with constructs coding for F508del-CFTR or mutants using JetPEI reagent (101000053, Polyplus Technology) following the manufacturer’s instructions. After 24 h, the correctors were added for a further 24 h. […] For binding site analysis experiments, the cells were kept either at 37 °C (Figure S8) or moved to 30 °C (Figure 9) during incubation with the selected correctors. VX-445 and corrector 3151 were mixed together as a control for maximal protein correction. DMSO (0.2%) was added to nontreated controls. After treatment, cells were lysed in RIPA buffer [50 mM tris-HCl pH 8, 150 mM NaCl, 1% NP40, 0.5% sodium deoxycolate, 0.1% SDS, 2.0 mM EDTA] and lysates were analyzed with WB, as described in the supplementary methods of the Supporting Information."}}, "data": [{"smiles": "CN(C(=O)c1cccc(-n2nc(C(F)(F)F)c3c2[C@@H](Oc2ccc(C(=O)O)cc2)CCC3)c1)c1ccc2c(c1)OC(F)(F)O2", "note": "[ARN23765]", "values": [{"measurement": "EC50", "setting": "F508del-CFTR; 3 nM-10 µM range", "result": "< 3", "unit": "nM"}, {"measurement": "HS-YFP assay in CFBE41o- cells Emax", "setting": "F508del-CFTR; values normalized to DMSO-incubated cells", "result": 2.7}, {"measurement": "Correction of CFTR with R domain deleted (delR construct, WB)", "setting": "[1]", "result": "still corrected"}, {"measurement": "Expression of CFTR fragments containing MSD1 (WB)", "setting": "[1]", "result": "increased expression"}, {"measurement": "Expression of CFTR fragments containing MSD2 (WB)", "setting": "[2]", "result": "no difference in expression"}, {"measurement": "F508del/R1070W protein maturation", "setting": "F508del/R1070W-CFTR", "result": "further enhanced"}]}]}
